Assay [1] concerns Triticum vulgaris (Cy3-TV, also known as wheat germ agglutinin). As to the kind of experiment: Carbohydrate chip incubated with Cy3-TV, fluorescence scanner. The following applies: carbohydrate on aminooxy or hydrazide chip, FIG. 5(a). Format: binding. The procedure: (§1) A solution (0.1 μl˜1 nl) of carbohydrates including mono-, di-, oligo- and polysaccharides in PBS buffer (pH 4.0-5.0) containing 30-50% glycerol is printed on the above-mentioned chip base by using a micropipette or microarrayer. In this process, the concentration of carbohydrates is preferably between 0.1 mM and 50 mM. After completion of printing, the chip is reacted at 40-60° C. for 8 hours or more, and then washed. Then, the chip is immersed in PBS buffer (pH 7.4) containing 0.1% Tween 20 and 1% BSA (bovine serum albumin) for 1 hour. The fabrication of carbohydrate chips is complete by washing the BSA-treated chip with buffer (pH 7.4) containing 0.1% Tween 20 three times for 15 minutes.
(§2) The fabricated carbohydrate chips are applied for studies on protein-carbohydrate interactions. For these studies, the carbohydrate chips are incubated with non-labeled or fluorophore-labeled proteins in buffer containing 0.1% Tween 20 for 1 hour. Proteins labeled by fluorescent dyes such as Cy3, Cy5 and FITC are commercially available, or can be prepared by reacting proteins with fluorescent dyes. Then, the protein-treated chips are washed with buffer containing 0.1% Tween 20 three times for 10 minutes in order to remove unbound proteins.
(§3) Carbohydrate chips are used for the rapid assessment of carbohydrate-protein interactions, which are involve in various biological processes and are of importance for the development of novel therapeutics, and for the fast diagnosis of carbohydrate-based diseases such as tumors and pathogens. For this purpose, each solution (sodium phosphate buffer containing 30% glycerol, pH 5.0) of twenty one of mono-, di-, oligo- and polysaccharides listed in Table 1 was printed on the solid support coated by aminooxy or hydrazide groups. The carbohydrate chips prepared from the method described in Example 3 were incubated with Cy3-TV, Cy5-AA and FITC-ConA. According to the fluorescence intensity of the spots in chips after detecting with a fluorescence scanner, TV strongly is bound to N,N′-diacetylchitobiose (13), less strongly to GlcNAc (2) and sialyl Le^x (19), and weakly bound to GalNAc (5), LacNAc (15) and NeuNAcLacNAc (18) [see FIG. 5(a)].

Assay [2] addresses T1, Aleuria aurantia (Cy5-AA) lectin (Aleuria aurantia, UniProt P18891).
T1 sequence (P18891 1-313): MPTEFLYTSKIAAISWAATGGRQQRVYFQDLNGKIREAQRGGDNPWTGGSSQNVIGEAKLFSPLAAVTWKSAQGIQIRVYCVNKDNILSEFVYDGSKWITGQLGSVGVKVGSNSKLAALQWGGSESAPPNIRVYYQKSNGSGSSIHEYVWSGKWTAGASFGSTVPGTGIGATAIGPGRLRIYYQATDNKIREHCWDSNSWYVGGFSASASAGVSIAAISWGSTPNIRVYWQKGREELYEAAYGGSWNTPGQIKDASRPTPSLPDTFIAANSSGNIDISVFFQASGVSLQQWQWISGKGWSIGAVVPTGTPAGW
As to the kind of experiment: Carbohydrate chip incubated with Cy5-AA, fluorescence scanner. The following applies: carbohydrate on aminooxy or hydrazide chip, FIG. 5(b). Format: binding. The protocol: as §1, §2, §3

Assay [3] has as its system E. coli ORN178, expressing mannose-binding adhesin on pili. As to the kind of experiment: Carbohydrate chip probed with E. coli pre-incubated with propidium iodide. The following applies: FIG. 5(e). The protocol: FIG. 5 is a fluorescent image of carbohydrate chips composed of 21 carbohydrates probed with (a) Cy3-TV, (b) Cy5-AA, (c) FITC-ConA, (d) anti-Sialyl Le^x antibody and (e) E. Coli pre-incubated with propidium iodide (PI).
Many bacteria including pathogens express specific carbohydrate-binding proteins on pili. The initial attachment of pathogens to host cells through specific carbohydrate-protein interactions confers pathogenic properties. For example, a mannose-binding protein of type 1 fimbriated E. coli is known to cause common urinary tract infection through its binding to glycans on host cells (Connell, H. et al., Proc. Natl. Acad. Sci. USA 1996, 93, 9827). Thus, carbohydrate chips were also used to detect pathogens for diagnosis. E. coli ORN178, expressing mannose-binding adhesin on pili, binds to spots containing mannose, mannobiose and mannan [see FIG. 5(e)].

For another assay, the target named is ConA (Canavalia ensiformis, UniProt P02866). As to the kind of experiment: Carbohydrate chip incubated with FITC-ConA, fluorescence scanner. As to conditions: carbohydrate on aminooxy or hydrazide chip, FIG. 5(c). The format is binding. The procedure: as §1, §2
as §3, with “The carbohydrate chips prepared from the method described in Example 3 were incubated with Cy3-TV, Cy5-AA and FITC-ConA.” left out

Assay [4] has as its system anti-sialyl Le^x antibody. As to the kind of experiment: Carbohydrate chip incubated with anti-sialyl Le^x antibody, fluorescence image. The format is binding. The following applies: FIG. 5(d). The procedure: as §1, §2
Sialyl Le^x is an important biological recognition marker and an interesting target for drug discovery. […]

For `CC(=O)N[C@H]1C(O)O[C@H](CO)[C@@H](O)[C@@H]1O` (stereo partly shown) [compound 2, N-acetylglucosamine], the “binding of TV to immobilized carbohydrate (fluorescence intensity of the spots)” value (from here on “binding of TV”) in assay [1] is recorded as “less strongly”.
As for `CC(=O)N[C@H]1[C@H](O[C@H]2[C@@H](O)[C@@H](CO)O[C@@H](O[C@H]3[C@H](O)[C@@H](O)C(O)O[C@@H]3CO)[C@@H]2O)O[C@H](CO)[C@@H](O[C@@H]2O[C@@H](C)[C@@H](O)[C@@H](O)[C@@H]2O)[C@@H]1O[C@@H]1O[C@H](CO)[C@H](O)[C@H](O)[C@H]1O[C@@H]1O[C@@H](C)[C@@H](O)[C@@H](O)[C@@H]1O` (stereo partly shown) [compound 20, Fucα1,2Galβ1,3(Fucα1,4)GlcNAcβ1,3Galβ1,4Glc], the “binding of AA to immobilized carbohydrate (fluorescence intensity of the spots)” value (“binding of AA” below) in assay [2] was “strongly bound”.
As for `C[C@@H]1O[C@@H](O[C@H]2[C@H](O[C@@H]3O[C@H](CO)[C@H](O)[C@H](O)[C@H]3O)[C@@H](CO)OC(O)[C@@H]2O)[C@@H](O)[C@H](O)[C@@H]1O` (stereo partly shown) [compound 17, Fucα1,3(Galβ1,4)Glc], in assay [2], the “binding of AA” value was “strongly bound”.
As for `CC(=O)N[C@H]1[C@H](O[C@H]2[C@H](O)[C@@H](NC(C)=O)C(O)O[C@@H]2CO)O[C@H](CO)[C@@H](O)[C@@H]1O` (stereo partly shown) [compound 13, N,N′-diacetylchitobiose], the “binding of TV” value in assay [1] is listed as “strongly”.
Still for that read-out and setting: then `CC(=O)N[C@H]1C(O)O[C@H](CO)[C@H](O)[C@@H]1O` (stereo partly shown) [compound 5, N-acetylgalactosamine], with “weakly bound”.
In the case of Manα1,6Man [compound 16], in assay [3], the “binding of E. coli ORN178 to carbohydrate spots” value was “binds”. For the same compound, on ConA, the “binding of ConA to immobilized carbohydrate (fluorescence intensity of the spots)” value (from here on “binding of ConA”) was “less strong binding”.
With Galβ1,4GlcNac [compound 15], in assay [1], the “binding of TV” value is “weakly bound”.
As for Mannan [compound 21], in assay [3], the “binding of E. coli ORN178 to carbohydrate spots” value is on record as “binds”. The “binding of ConA” value on ConA is “strong binding”.
Regarding `C[C@H](O)[C@@H](O)[C@@H](O)[C@H](O)C=O` [compound 8, fucose], the “binding of AA” value in assay [2] is listed as “strongly bound”.
On to `CC(=O)N[C@H]1[C@H]([C@H](O)[C@H](O)CO)O[C@@](O[C@H]2[C@@H](O)[C@@H](CO)O[C@@H](O[C@H]3[C@H](O[C@@H]4O[C@@H](C)[C@@H](O)[C@@H](O)[C@@H]4O)[C@@H](NC(C)=O)C(O)O[C@@H]3CO)[C@@H]2O)(C(=O)O)C[C@@H]1O` (stereo partly shown) [compound 19, Sialyl Le^x], for which the “binding of AA” value in assay [2] is reported as “very weakly bound”. Moreover, the “recognition by anti-sialyl Le^x antibody (fluorescence image of the chip)” value in assay [4] is “selectively recognized”. Also, in assay [1], the “binding of TV” value was “less strongly”.
As for `CC(=O)N[C@H]1[C@H]([C@H](O)[C@H](O)CO)O[C@@](O[C@H]2[C@@H](O)[C@@H](CO)O[C@@H](O[C@H]3[C@H](O)[C@@H](NC(C)=O)C(O)O[C@@H]3CO)[C@@H]2O)(C(=O)O)C[C@@H]1O` (stereo partly shown) [compound 18, NeuNAcα2,3Galβ1,4GlcNAc], in assay [1], the “binding of TV” value is on record as “weakly bound”.
Consider `OC[C@H]1O[C@H](O[C@H]2[C@H](O)[C@@H](O)C(O)O[C@@H]2CO)[C@H](O)[C@@H](O)[C@@H]1O` (mixture of isomers) [compound 11, Maltose], for which the “binding of ConA” value on ConA is listed as “very weak binding”.

These data come from patent US20060252030A1, “Fabrication of carbohydrate chips by immobilizing unmodified carbohydrates on derivatized solid surfaces, and their uses” (priority 2005, published 2006).
